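Where inhibition never reached the appropriate level, the endpoint shown equals the highest concentration tested. Otherwise, values were interpolated linearly from a five-concentration, 48-hour dose response in 96-well plates. At the GI50, growth is halved.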 Activity calls are given as the source filed them. Cut-off read from the data, not from the text of the source: active = GI50 up to about 1.1 µM and inactive = higher.
Assays:
Test in all cases: DTP human tumour cell line panel, 48 h
SK-MEL-5 = test system: SK-MEL-5
M14 = test system: M14
KM12 = test system: KM12
U-251 = test system: U-251
HCT-15 = test system: HCT-15
786-0 = test system: 786-0
OVCAR-4 = test system: OVCAR-4
NCI-H460 = test system: NCI-H460
TK-10 = test system: TK-10
UACC-257 = test system: UACC-257
NCI-H522 = test system: NCI-H522
SF-295 = test system: SF-295
KM-20L2 = test system: KM-20L2
HOP-92 = test system: HOP-92
NCI-H23 = test system: NCI-H23
UO-31 = test system: UO-31
RXF 393 = test system: RXF 393
SNB-75 = test system: SNB-75
T47D = test system: T47D
Hs-578T = test system: Hs-578T

Measured: GI50

N#Cc1cccc(N2C(=O)c3c(c(-c4ccccc4)c(-c4ccc(Sc5ccc(-c6c(-c7ccccc7)c7c(c(-c8ccccc8)c6-c6ccccc6)C(=O)N(c6cccc(C#N)c6)C7=O)cc5)cc4)c(-c4ccccc4)c3-c3ccccc3)C2=O)c1
inactive: SK-MEL-5 77.6 µM | M14 > 100 µM | KM12 > 100 µM | U-251 21.2 µM | 786-0 > 100 µM | OVCAR-4 > 100 µM | NCI-H460 > 100 µM | TK-10 51.8 µM | UACC-257 > 100 µM | NCI-H522 > 100 µM | SF-295 > 100 µM | KM-20L2 > 100 µM | HOP-92 3.92 µM | NCI-H23 > 100 µM | UO-31 91.8 µM | RXF 393 16.9 µM
43.8 µM: HCT-15

C[S+]([O-])c1ccc(COP(N)(=O)N(CCCl)CCCl)cc1 (stereo not drawn)
inactive: SK-MEL-5 > 100 µM | M14 > 100 µM | SNB-75 > 100 µM | KM12 > 100 µM | U-251 > 100 µM | 786-0 > 100 µM | OVCAR-4 > 100 µM | NCI-H460 > 100 µM | TK-10 > 100 µM | UACC-257 > 100 µM | NCI-H522 > 100 µM | SF-295 > 100 µM | KM-20L2 > 100 µM | HOP-92 > 100 µM | NCI-H23 > 100 µM | UO-31 > 100 µM | RXF 393 > 100 µM

COC1C2C[C@@H](O)CCC2C(C(=O)OCCl)C[C@H]1O (stereo partly drawn)
> 100 µM: HCT-15
inactive: SK-MEL-5 > 100 µM | M14 > 100 µM | SNB-75 > 100 µM | KM12 > 100 µM | U-251 > 100 µM | 786-0 > 100 µM | OVCAR-4 > 100 µM | NCI-H460 > 100 µM | TK-10 > 100 µM | UACC-257 > 100 µM | NCI-H522 > 100 µM | KM-20L2 > 100 µM | UO-31 > 100 µM | RXF 393 > 100 µM

CS/C(C)=N/OC(=O)NCCCCNc1ccc(N=[N+]=[N-])cc1
36.9 µM: HCT-15
inactive: SK-MEL-5 16.7 µM | M14 37.7 µM | SNB-75 52.4 µM | KM12 29.5 µM | U-251 30.6 µM | 786-0 76.7 µM | OVCAR-4 42.9 µM | NCI-H460 35 µM | TK-10 33.3 µM | UACC-257 30.9 µM | NCI-H522 4.76 µM | SF-295 28.5 µM | KM-20L2 41.5 µM | HOP-92 55.3 µM | NCI-H23 34.9 µM | UO-31 20.7 µM | RXF 393 46 µM

CC1(C)CC(=O)C(C(=O)C(=O)NC2=C(Cl)C(=O)c3ccccc3C2=O)C(=O)C1
inactive: SK-MEL-5 73.8 µM | M14 > 100 µM | SNB-75 71.1 µM | KM12 42.3 µM | U-251 82.2 µM | 786-0 > 100 µM | OVCAR-4 63.5 µM | NCI-H460 51.2 µM | TK-10 > 100 µM | UACC-257 > 100 µM | NCI-H522 24 µM | SF-295 > 100 µM | KM-20L2 > 100 µM | NCI-H23 > 100 µM | UO-31 57.4 µM | RXF 393 70.8 µM
46.5 µM: HCT-15

COCC12CC(CC1=O)C1C2ON2c3ccccc3C(=O)C12c1ccccc1 (stereo not drawn)
> 100 µM: HCT-15
inactive: SK-MEL-5 > 100 µM | M14 > 100 µM | SNB-75 > 100 µM | U-251 > 100 µM | 786-0 > 100 µM | OVCAR-4 4.9 µM | UACC-257 52 µM | NCI-H522 > 100 µM | SF-295 > 100 µM | KM-20L2 > 100 µM | HOP-92 > 100 µM | NCI-H23 > 100 µM | UO-31 > 100 µM | RXF 393 33.3 µM

CN1CCC(CN2c3ccccc3Sc3ccccc32)CC1
inactive: SK-MEL-5 7.19 µM | M14 13 µM | KM12 16 µM | U-251 15.7 µM | 786-0 14.3 µM | OVCAR-4 16.3 µM | NCI-H460 14.7 µM | TK-10 15.7 µM | UACC-257 14.6 µM | NCI-H522 14.9 µM | SF-295 15.8 µM | KM-20L2 12.9 µM | HOP-92 5.69 µM | NCI-H23 16.4 µM | UO-31 10.1 µM | RXF 393 3.07 µM
18.5 µM: HCT-15

COc1cccc2c1C(=O)C1(O)CCCCC21 (stereo not drawn)
inactive: SK-MEL-5 > 100 µM | M14 > 100 µM | SNB-75 > 100 µM | KM12 > 100 µM | U-251 > 100 µM | 786-0 > 100 µM | OVCAR-4 > 100 µM | NCI-H460 > 100 µM | TK-10 > 100 µM | UACC-257 > 100 µM | NCI-H522 > 100 µM | SF-295 > 100 µM | KM-20L2 > 100 µM | NCI-H23 > 100 µM | UO-31 > 100 µM | RXF 393 > 100 µM
> 100 µM: HCT-15

CCSc1c2ccccc2c(-c2nc(F)nc(F)n2)n1CCc1ccccc1
inactive: M14 > 100 µM | KM12 > 100 µM | U-251 > 100 µM | 786-0 > 100 µM | OVCAR-4 > 100 µM | NCI-H460 > 100 µM | TK-10 > 100 µM | NCI-H522 > 100 µM | SF-295 > 100 µM | KM-20L2 > 100 µM | HOP-92 > 100 µM | NCI-H23 > 100 µM | UO-31 > 100 µM | RXF 393 > 100 µM
> 100 µM: HCT-15

COCCNC(=O)C1C(=O)N(CCOC)C(=O)/C1=N/N (stereo not drawn)
> 100 µM: HCT-15
inactive: M14 > 100 µM | SNB-75 > 100 µM | KM12 > 100 µM | U-251 > 100 µM | 786-0 > 100 µM | TK-10 > 100 µM | UACC-257 > 100 µM | NCI-H522 > 100 µM | SF-295 > 100 µM | KM-20L2 > 100 µM | HOP-92 > 100 µM | NCI-H23 > 100 µM | UO-31 > 100 µM

BrC12c3ccccc3Sc3ccccc3C1(Br)c1ccccc12 (stereo not drawn)
17.8 µM: HCT-15
inactive: SK-MEL-5 16.2 µM | M14 15.2 µM | SNB-75 27.3 µM | KM12 19.9 µM | U-251 17.7 µM | 786-0 34.5 µM | OVCAR-4 33.1 µM | NCI-H460 40.2 µM | TK-10 35.6 µM | UACC-257 22.3 µM | NCI-H522 17.5 µM | SF-295 23.7 µM | KM-20L2 20.6 µM | HOP-92 19.8 µM | UO-31 33 µM | RXF 393 34.2 µM

CSc1ccc(NC(=O)C2c3[nH]c4ccccc4c3C3CCC(C(C)(C)C)CC3C2C(=O)O)cc1 (stereo not drawn)
inactive: SK-MEL-5 21.1 µM | M14 18.4 µM | SNB-75 17.2 µM | U-251 15 µM | 786-0 17.5 µM | OVCAR-4 18.4 µM | UACC-257 34.1 µM | NCI-H522 15 µM | SF-295 17.6 µM | KM-20L2 16.3 µM | HOP-92 23.2 µM | NCI-H23 20.1 µM | UO-31 17.5 µM | RXF 393 20 µM
29.2 µM: HCT-15

CC(C)=CCC/C(=C/CC/C(C)=C/CCc1ccoc1)C(=O)O
inactive: SK-MEL-5 > 100 µM | M14 > 100 µM | SNB-75 > 100 µM | KM12 > 100 µM | U-251 > 100 µM | 786-0 > 100 µM | OVCAR-4 > 100 µM | NCI-H460 > 100 µM | UACC-257 > 100 µM | NCI-H522 > 100 µM | SF-295 > 100 µM | KM-20L2 > 100 µM | HOP-92 > 100 µM | NCI-H23 > 100 µM | UO-31 > 100 µM | RXF 393 > 100 µM
> 100 µM: HCT-15

C1CSCCCSCCCSCCCSCCCSC1
inactive: SK-MEL-5 14.2 µM | M14 29.7 µM | T47D 17.2 µM | SNB-75 20.1 µM | KM12 25.4 µM | U-251 42.5 µM | 786-0 40.2 µM | OVCAR-4 22.5 µM | NCI-H460 14.4 µM | TK-10 37.2 µM | UACC-257 25.5 µM | NCI-H522 27.2 µM | SF-295 22.2 µM | Hs-578T 44.8 µM | HOP-92 24.1 µM | NCI-H23 26.5 µM | UO-31 26.8 µM | RXF 393 42.9 µM
40.6 µM: HCT-15

O=C(CNc1ccccc1[N+](=O)[O-])Nn1c(-c2ccccc2)nc2ccccc2c1=O
19.9 µM: HCT-15
inactive: SK-MEL-5 10.4 µM | M14 16.7 µM | T47D 17.3 µM | SNB-75 11.3 µM | KM12 > 10 µM | U-251 19.2 µM | 786-0 18.9 µM | OVCAR-4 17 µM | NCI-H460 20.9 µM | TK-10 > 10 µM | UACC-257 > 10 µM | NCI-H522 > 10 µM | SF-295 20.6 µM | Hs-578T 27.4 µM | HOP-92 12.4 µM | NCI-H23 25.8 µM | UO-31 18.7 µM | RXF 393 20.1 µM

CN(C)c1ccc(/C=C/C(=O)c2ccc(O)cc2)cc1
2.94 µM: HCT-15
inactive: SK-MEL-5 6.58 µM | M14 4.14 µM | T47D 13.5 µM | SNB-75 5.2 µM | KM12 3.25 µM | U-251 3.99 µM | 786-0 7.64 µM | OVCAR-4 24.2 µM | NCI-H460 4.72 µM | TK-10 35.3 µM | UACC-257 7.66 µM | NCI-H522 2.71 µM | SF-295 4.58 µM | Hs-578T 17.4 µM | HOP-92 38.2 µM | NCI-H23 11.3 µM | UO-31 14.4 µM | RXF 393 6.27 µM

Source: ChEMBL document CHEMBL1201862, “PubChem BioAssay data set” (2004)
